This assay concerns the target Cj1427 (Campylobacter jejuni, UniProt Q0P8I7). Description: stopped-flow NADH fluorescence, single turnover, global fit by simulation. It counts as binding.

Structures are written as SMILES.

The values that follow come from publication PMC7500870 (Biochemistry, 2020).

For orientation: Kd means the free concentration of one partner at which half of the binding sites on the other are occupied at equilibrium, for simple one-to-one binding. A high value points to a looser complex.

Chain of Cj1427 (Q0P8I7 whole entry): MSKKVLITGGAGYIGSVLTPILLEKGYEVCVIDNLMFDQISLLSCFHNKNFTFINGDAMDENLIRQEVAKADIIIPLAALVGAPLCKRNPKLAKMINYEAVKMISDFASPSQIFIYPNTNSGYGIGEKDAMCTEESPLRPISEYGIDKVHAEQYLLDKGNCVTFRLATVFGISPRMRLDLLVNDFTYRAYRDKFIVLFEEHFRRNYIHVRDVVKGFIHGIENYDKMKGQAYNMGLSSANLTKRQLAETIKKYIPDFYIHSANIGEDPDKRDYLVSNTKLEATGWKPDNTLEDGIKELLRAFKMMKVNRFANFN

Compound `O=C(O)CCC(=O)C(=O)O` [α-ketoglutarate] had a Kd of 165 µM.
